The values below come from patent publication US20220389477A1, “METHOD FOR EVALUATING ANTIBIOTIC SUSCEPTIBILITY” (Vrije Universiteit Brussel, priority 2019, published 2022).

The subject of test [1] is Escherichia coli culture. The test can be described thus: Optical third-derivative MIC method, culture in broth. Type of test: cell-based. The following applies: EC/03D177; for MIC: Escherichia coli. From the text: The method of FIG. 1 starts at a time equal to zero, t0 (1). Preferably, said t0 is the moment a pure bacteria culture is finished being prepared. Alternatively, said t0 is the moment all wells contain both said bacteria culture and said antimicrobial drug. After the starting of the experiment each well is periodically illuminated with a light source and the intensity of the transmitted light is detected with a photodetector (2). Preferably, each well is illuminated and the intensity of the transmitted light is detected every hour (2). More preferably, each well is illuminated and the intensity of the transmitted light is detected every 5 to 15 min. After a predetermined time length, preferably after 4 hours, a first, a second and a third derivative of said measured intensity is calculated (3) in a first and a second time frame for each well. Preferably, said second time frame is the last measured time frame after the test has been running for said predetermined time length, and said first time frame is the time frame preceding the second time frame. More preferably, said first time frame is between two and three hours and said second time frame is between three and four hours. After the calculation of said derivatives, said first derivative in said second time frame of said reference well is compared to a growth speed threshold value (4). Preferably, said growth speed threshold value is 0.166 (4). If said first derivative in said second time frame of said reference well is larger than or equal to said growth speed threshold value said bacteria culture is classified as Type I (4). If said first derivative in said second time frame of said reference well is smaller than said growth speed threshold value said bacteria culture is classified as Type II (4). Subsequently, independent of the classification of the bacteria culture according to the two types, the method comprises the following steps which are performed for each well or for all wells except said reference well. Both said first and said second time frames are evaluated to see if there is an inflection point present in the second derivative in said first and/or said second time frame (5).
If said first and/or said second time frame comprise said inflection point than said third derivative in said first time frame is compared to said third derivative in said second time frame (6). If said third derivative in said first time frame is larger than said third derivative in said second time frame, then said first time frame and said second time frame are selected as a first and second time frame to be used in a minimal inhibitory concentration determination method (10). If said third derivative in said first time frame is not larger than said third derivative in said second time frame, then said well is illuminated again after a certain time period, preferably an hour, more preferably 5 to 15 min after said predetermined time length said, with a light source and the intensity of the transmitted light is detected with a photodetector forming a new time frame subsequent to said second time frame (7). A third derivative, and possibly also a first and/or a second derivative, is calculated in said new time frame (7). Further, in step (7) a new first time frame is put equal to said second time frame and a new second time frame to equal to said new time frame. Subsequently, said third derivative in said new first time frame is compared to said third derivative in said new second time frame (8). If said derivative in said new first time frame is larger than said third derivative in said new second time frame, then said new first time frame and said new second time frame are selected as a first and second time frame to be used in a minimal inhibitory concentration determination method (10). […]

Test [2] concerns Escherichia coli culture. In words: E-test. Type of test: cell-based. The following applies: culture EC/03D177.
Test [3] relates to Escherichia coli culture. The test can be described thus: Broth microdilution (BMD). Type of test: cell-based. The following applies: culture EC/03D177. Background: In broth dilution the organism is exposed to a series of concentrations in liquid medium.
The subject of test [4] is E-coli. The following applies: tabulated, known value, cited from earlier work.

Converted amounts (≈) assume the structure as drawn. Where two headings read alike, the source gives them in different places.

For orientation: MIC means the least concentration at which growth counts as inhibited. On to `CC1(C)S[C@@H]2[C@H](NC(=O)[C@H](N)c3ccccc3)C(=O)N2[C@H]1C(=O)O` [ampicillin], for which the “heteroresistance determined by the method” value in test [1] (FIG. 5D, overall conclusion) was “not heteroresistant”. For the same molecule, the “HR? at MIC (25%)” value in test [1] (ratio MIC T2/T1) is listed as “yes (If the ratio of the MIC value in the second time frame over the MIC value in the first time frame is higher than or equal to 8 then the ratio is labelled to be heteroresistant)”. Further, in test [1] (ratio MIC T2/T1), the “HR? at MIC (40%)” value is “no (If the ratio of the MIC value in the second time frame over the MIC value in the first time frame is lower than or equal to 4 then the ratio is labelled not to be heteroresistant)”. In test [1] (ratio MIC T2/T1), the “HR? at MIC (60%)” value is recorded as “no (If the ratio of the MIC value in the second time frame over the MIC value in the first time frame is lower than or equal to 4 then the ratio is labelled not to be heteroresistant)”. For the same molecule, the “HR? at MIC (75%)” value in test [1] (ratio MIC T2/T1) is given as “no (If the ratio of the MIC value in the second time frame over the MIC value in the first time frame is lower than or equal to 4 then the ratio is labelled not to be heteroresistant)”. Further, the MIC in test [1] (3 h-4 h, read-out: MIC (25%) T1) was 2 µg/mL (≈ 5.72 µM); in test [1] (3 h-4 h, read-out: MIC (40%) T1), 2 µg/mL (≈ 5.72 µM); in test [1] (3 h-4 h, read-out: MIC (60%) T1) it was 2 µg/mL (≈ 5.72 µM); in test [1] (3 h-4 h, read-out: MIC (75%) T1), 2 µg/mL (≈ 5.72 µM); in test [1] (4 h-5 h, read-out: MIC (25%) T2), 8 µg/mL (≈ 22.9 µM); in test [1] (4 h-5 h, read-out: MIC (40%) T2), 2 µg/mL (≈ 5.72 µM). Moreover, the MIC was determined as 2 µg/mL (≈ 5.72 µM) in test [1] (4 h-5 h, read-out: MIC (60%) T2); 2 µg/mL (≈ 5.72 µM) in test [1] (4 h-5 h, read-out: MIC (75%) T2); 2 µg/mL (≈ 5.72 µM) in test [1] (FIG. 5D, overall conclusion, read-out: MIC value determined by the method); 2 µg/mL (≈ 5.72 µM) in test [2] (Escherichia coli); 4 µg/mL (≈ 11.4 µM) in test [3]. Further, the “HR? (E-test)” value in test [2] was “no”. Moreover, the values for the MIC for Ampiciline in test [4] (Colony ID. 03D161), in test [4] (Colony ID. 03D177) and in test [4] (Colony ID. 03D179) were 4 µg/mL, 2 µg/mL and > 32 µg/mL, respectively.
